Assays:
[1] = target: TYK2 JH2 domain (Homo sapiens (Human), UniProt P29597); assay: TYK2 JH2 NanoBRET assay; type: binding; conditions: Table 20, read-out: TYK2 IC50
Method in brief: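 Tracer displacement measured by BRET ratio (acceptor over donor) in live HEK293T cells transfected with a NanoLuc-tagged TYK2 JH2 construct; cells co-exposed to test compound and 0.5 µM final K10 tracer for 2 h before substrate/extracellular inhibitor addition.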

[2] = target: human JAK3 (Homo sapiens (Human), UniProt P52333); assay: JAK3 TR-FRET kinase assay; type: biochemical; conditions: JAK3 0.0125 nM
[3] = target: human JAK1 (Homo sapiens (Human), UniProt P23458); assay: JAK1 TR-FRET kinase assay; type: biochemical; conditions: TR-FRET, JAK1 2.5 nM
[4] = target: human JAK2 (Homo sapiens (Human), UniProt O60674); assay: JAK2 TR-FRET kinase assay; type: biochemical; conditions: JAK2 0.025 nM
Chain of human JAK2 (O60674 whole entry): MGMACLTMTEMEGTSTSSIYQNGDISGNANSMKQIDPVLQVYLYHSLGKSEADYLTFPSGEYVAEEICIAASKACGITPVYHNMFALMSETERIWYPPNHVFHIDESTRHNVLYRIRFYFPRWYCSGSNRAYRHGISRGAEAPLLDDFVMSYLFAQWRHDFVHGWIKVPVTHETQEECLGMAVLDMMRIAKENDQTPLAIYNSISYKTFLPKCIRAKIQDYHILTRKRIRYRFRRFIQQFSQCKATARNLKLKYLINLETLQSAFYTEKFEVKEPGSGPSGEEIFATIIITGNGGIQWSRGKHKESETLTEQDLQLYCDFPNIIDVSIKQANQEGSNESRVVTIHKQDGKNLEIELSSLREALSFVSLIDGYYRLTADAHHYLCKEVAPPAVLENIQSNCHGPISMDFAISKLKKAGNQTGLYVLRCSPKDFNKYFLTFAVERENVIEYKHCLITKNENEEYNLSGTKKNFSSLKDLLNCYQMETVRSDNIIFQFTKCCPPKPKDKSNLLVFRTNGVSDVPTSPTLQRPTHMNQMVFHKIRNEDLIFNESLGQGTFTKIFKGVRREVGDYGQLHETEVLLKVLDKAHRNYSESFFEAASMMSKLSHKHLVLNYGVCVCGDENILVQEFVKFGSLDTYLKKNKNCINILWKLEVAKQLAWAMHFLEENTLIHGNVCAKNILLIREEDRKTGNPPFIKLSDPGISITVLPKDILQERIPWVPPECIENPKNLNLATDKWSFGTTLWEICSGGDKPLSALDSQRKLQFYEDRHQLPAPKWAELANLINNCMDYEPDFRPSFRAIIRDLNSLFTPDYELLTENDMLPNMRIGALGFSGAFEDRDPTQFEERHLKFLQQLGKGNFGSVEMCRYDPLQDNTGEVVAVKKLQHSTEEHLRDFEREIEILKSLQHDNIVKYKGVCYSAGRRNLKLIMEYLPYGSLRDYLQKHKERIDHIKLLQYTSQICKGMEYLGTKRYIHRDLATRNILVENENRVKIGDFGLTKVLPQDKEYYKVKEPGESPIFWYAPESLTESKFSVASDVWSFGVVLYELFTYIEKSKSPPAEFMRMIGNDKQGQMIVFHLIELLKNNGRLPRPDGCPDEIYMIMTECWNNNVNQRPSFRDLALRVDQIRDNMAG

Chain of TYK2 JH2 domain (P29597 589-875): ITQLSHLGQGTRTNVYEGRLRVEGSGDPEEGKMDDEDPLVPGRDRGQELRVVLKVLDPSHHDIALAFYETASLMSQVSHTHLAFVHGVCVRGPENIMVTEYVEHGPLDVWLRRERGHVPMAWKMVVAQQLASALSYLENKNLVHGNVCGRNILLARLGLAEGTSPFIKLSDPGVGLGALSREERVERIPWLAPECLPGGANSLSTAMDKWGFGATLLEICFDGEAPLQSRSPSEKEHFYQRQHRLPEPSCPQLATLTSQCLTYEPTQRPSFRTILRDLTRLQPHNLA
Chain of human JAK3 (P52333 whole entry): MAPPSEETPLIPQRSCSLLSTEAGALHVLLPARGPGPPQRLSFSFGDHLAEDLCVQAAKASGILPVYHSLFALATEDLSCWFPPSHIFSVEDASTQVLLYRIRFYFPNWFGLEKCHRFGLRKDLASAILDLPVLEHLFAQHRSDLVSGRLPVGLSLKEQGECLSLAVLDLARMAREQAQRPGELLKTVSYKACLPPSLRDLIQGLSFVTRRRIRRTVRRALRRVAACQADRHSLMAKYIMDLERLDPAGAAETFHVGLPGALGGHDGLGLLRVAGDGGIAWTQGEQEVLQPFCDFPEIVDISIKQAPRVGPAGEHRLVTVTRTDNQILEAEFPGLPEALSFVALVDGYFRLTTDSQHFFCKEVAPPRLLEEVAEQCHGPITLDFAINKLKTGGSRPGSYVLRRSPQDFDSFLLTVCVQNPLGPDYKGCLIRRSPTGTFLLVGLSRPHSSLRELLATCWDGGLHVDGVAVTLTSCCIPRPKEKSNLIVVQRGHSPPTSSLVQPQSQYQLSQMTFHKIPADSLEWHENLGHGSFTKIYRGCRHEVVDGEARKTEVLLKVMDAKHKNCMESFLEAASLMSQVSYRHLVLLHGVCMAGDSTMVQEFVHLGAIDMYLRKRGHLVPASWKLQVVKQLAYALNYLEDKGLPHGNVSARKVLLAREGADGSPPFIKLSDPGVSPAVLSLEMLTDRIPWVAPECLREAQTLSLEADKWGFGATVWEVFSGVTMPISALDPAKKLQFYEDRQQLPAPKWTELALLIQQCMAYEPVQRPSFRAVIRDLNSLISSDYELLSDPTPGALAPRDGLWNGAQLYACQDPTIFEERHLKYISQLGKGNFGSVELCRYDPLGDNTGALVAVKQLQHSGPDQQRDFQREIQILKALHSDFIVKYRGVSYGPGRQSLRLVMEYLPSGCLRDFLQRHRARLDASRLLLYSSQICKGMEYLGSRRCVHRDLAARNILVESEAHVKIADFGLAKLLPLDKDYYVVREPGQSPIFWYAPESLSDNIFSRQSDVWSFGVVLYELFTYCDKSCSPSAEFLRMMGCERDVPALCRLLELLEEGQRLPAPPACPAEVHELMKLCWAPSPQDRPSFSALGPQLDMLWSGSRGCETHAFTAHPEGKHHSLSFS
Chain of human JAK1 (P23458 whole entry): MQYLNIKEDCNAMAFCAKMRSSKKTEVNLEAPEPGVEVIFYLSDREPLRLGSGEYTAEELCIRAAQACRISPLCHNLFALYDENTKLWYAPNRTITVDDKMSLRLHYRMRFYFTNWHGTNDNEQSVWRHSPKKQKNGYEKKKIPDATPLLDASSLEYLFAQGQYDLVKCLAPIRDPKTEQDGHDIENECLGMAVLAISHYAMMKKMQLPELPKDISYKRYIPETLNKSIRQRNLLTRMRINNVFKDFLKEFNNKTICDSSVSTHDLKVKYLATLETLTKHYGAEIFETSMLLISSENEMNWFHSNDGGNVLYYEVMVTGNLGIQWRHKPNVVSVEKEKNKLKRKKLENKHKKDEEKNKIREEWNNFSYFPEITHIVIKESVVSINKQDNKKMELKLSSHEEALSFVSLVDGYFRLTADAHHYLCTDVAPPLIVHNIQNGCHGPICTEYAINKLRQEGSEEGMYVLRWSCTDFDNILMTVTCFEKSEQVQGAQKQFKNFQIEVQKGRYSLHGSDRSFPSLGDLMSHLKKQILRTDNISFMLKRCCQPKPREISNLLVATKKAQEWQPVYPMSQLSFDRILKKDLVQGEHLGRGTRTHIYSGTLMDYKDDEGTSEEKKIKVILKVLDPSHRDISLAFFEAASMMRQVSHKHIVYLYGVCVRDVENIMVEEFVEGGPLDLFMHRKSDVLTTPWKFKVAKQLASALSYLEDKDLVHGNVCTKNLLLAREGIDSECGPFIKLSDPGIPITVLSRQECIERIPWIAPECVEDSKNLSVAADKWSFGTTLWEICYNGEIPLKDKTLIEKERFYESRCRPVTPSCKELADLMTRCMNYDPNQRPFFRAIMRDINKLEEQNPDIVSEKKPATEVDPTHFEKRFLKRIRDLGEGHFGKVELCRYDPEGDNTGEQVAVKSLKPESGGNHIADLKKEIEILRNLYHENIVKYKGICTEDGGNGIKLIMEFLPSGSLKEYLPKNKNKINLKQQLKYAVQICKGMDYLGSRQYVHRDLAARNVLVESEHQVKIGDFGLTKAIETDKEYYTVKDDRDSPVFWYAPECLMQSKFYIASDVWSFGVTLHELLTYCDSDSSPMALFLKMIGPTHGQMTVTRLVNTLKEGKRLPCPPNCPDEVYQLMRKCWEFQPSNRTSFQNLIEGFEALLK

Compound | IC50 [1] [nM] | IC50 [2] [nM] | IC50 [3] [nM] | IC50 [4] [nM]
CCC(=O)c1cnc(Nc2ccc(-n3ccnc(C)c3=O)cn2)cc1Nc1cccc(-c2ncn(C)n2)c1OC [Compound 15X] | 5 to 50 | 50 to 500 | ≥ 500 | 50 to 500
CCC(=O)c1cnc(Nc2ccc(-n3cnccc3=O)cn2)cc1Nc1cccc(-c2ncn(C)n2)c1OC [Compound 15Y] | < 5 | 50 to 500 | ≥ 500 | 50 to 500
CCC(=O)c1cnc(Nc2ccc(-n3nc(C)ccc3=O)cn2)cc1Nc1cccc(-c2ncn(C)n2)c1OC [Compound 15Z] | 5 to 50 | ≥ 500 | ≥ 500 | ≥ 500
CCC(=O)c1cnc(Nc2ccc(-c3cccn(C)c3=O)cn2)cc1Nc1cccc(-c2ncn(C)n2)c1OC [Compound 16A, 6′-((4-((2-methoxy-3-(1-methyl-1H-1,2,4-triazol-3-yl)phenyl)amino)-5-propionylpyridin-2-yl)amino)-1-methyl-[3,3′-bipyridin]-2(1H)-one] | < 5 | 50 to 500 | ≥ 500 | 50 to 500
CCC(=O)c1cnc(Nc2cc(CN(C)C)ncn2)cc1Nc1cccc(-c2ncn(C)n2)c1OC [Compound 17A, 1-(6-((6-((dimethylamino)methyl)pyrimidin-4-yl)amino)-4-((2-methoxy-3-(1-methyl-1H-1,2,4-triazol-3-yl)phenyl)amino)pyridin-3-yl)propan-1-one] | < 5 | ≥ 500 | ≥ 500 | ≥ 500
CCC(=O)c1cnc(Nc2ccc(O[C@@H]3CCOC3)c(C)n2)cc1Nc1cccc(-c2ncn(C)n2)c1OC [Compound 18AAAA] | < 5 | 50 to 500 | ≥ 500 | 50 to 500
CCC(=O)c1cnc(Nc2cnc(O[C@H]3CN(C)C[C@@H]3F)cn2)cc1Nc1cccc(-c2ncn(C)n2)c1OC [Compound 18AAA] | 5 to 50 | ≥ 500 | ≥ 500 | ≥ 500
CCC(=O)c1cnc(Nc2ccc(OCC3COC3)cn2)cc1Nc1cccc(-c2ncn(C)n2)c1OC [Compound 18AA] | < 5 | 50 to 500 | ≥ 500 | 50 to 500
CCC(=O)c1cnc(Nc2ncc(OC3COC3)cc2F)cc1Nc1cccc(-c2ncn(C)n2)c1OC [Compound 18BBBB] | 5 to 50 | ≥ 500 | ≥ 500 | ≥ 500
CCC(=O)c1cnc(Nc2cnc(O[C@H]3CN(C)C[C@H]3F)cn2)cc1Nc1cccc(-c2ncn(C)n2)c1OC [Compound 18BBB] | 5 to 50 | ≥ 500 | ≥ 500 | ≥ 500
CCC(=O)c1cnc(Nc2ccc(O[C@@H]3CCOC3)cn2)cc1Nc1cccc(-c2ncn(C)n2)c1OC [Compound 18BB] | < 5 | ≥ 500 | ≥ 500 | ≥ 500
COc1c(Nc2cc(Nc3ccc(OCCO)cn3)ncc2C(=O)C2CC2)cccc1-c1ncn(C)n1 [Compound 18B] | < 5 | ≥ 500 | ≥ 500 | ≥ 500
CCC(=O)c1cnc(Nc2ncc(OCC3COC3)cc2F)cc1Nc1cccc(-c2ncn(C)n2)c1OC [Compound 18CCCC] | 50 to 500 | ≥ 500 | ≥ 500 | ≥ 500
CCC(=O)c1cnc(Nc2cnc(O[C@@H]3CCN(C)C3)cn2)cc1Nc1nccc(-c2ncn(C)n2)c1OC [Compound 18CCC] | ≥ 500 | ≥ 500 | ≥ 500 | ≥ 500
CCC(=O)c1cnc(Nc2ccc(OCCN3CCCC3)nn2)cc1Nc1cccc(-c2ncn(C)n2)c1OC [Compound 18CC] | < 5 | ≥ 500 | ≥ 500 | ≥ 500
COc1c(Nc2cc(Nc3ccc(OCCCO)cn3)ncc2C(=O)C2CC2)cccc1-c1ncn(C)n1 [Compound 18C] | < 5 | ≥ 500 | ≥ 500 | ≥ 500

Compound | IC50 [1] [nM] | IC50 [2] [nM] | IC50 [3] [nM] | IC50 [4] [nM]
CCC(=O)c1cnc(Nc2ccc(OC3CN(C)C3)nn2)cc1Nc1cccc(-c2ncn(C)n2)c1OC [Compound 18DDDD] | 5 to 50 | ≥ 500 | ≥ 500 | ≥ 500
CCC(=O)c1cnc(Nc2ccc(OCCCN3CCCC3)nn2)cc1Nc1cccc(-c2ncn(C)n2)c1OC [Compound 18DD] | < 5 | ≥ 500 | ≥ 500 | ≥ 500
CCC(=O)c1cnc(Nc2ccc(OCCOC)cn2)cc1Nc1cccc(-c2ncn(C)n2)c1OC [Compound 18D] | 5 to 50 | 50 to 500 | ≥ 500 | ≥ 500
CCC(=O)c1cnc(Nc2cnc(OC3CCN(C)CC3)cn2)cc1Nc1cccc(-c2ncn(C)n2)c1OC [Compound 18EEE] | < 5 | ≥ 500 | ≥ 500 | ≥ 500
CCC(=O)c1cnc(Nc2ccc(OC3CCN(C)CC3)nn2)cc1Nc1cccc(-c2ncn(C)n2)c1OC [Compound 18EE] | < 5 | ≥ 500 | ≥ 500 | ≥ 500
CCC(=O)c1cnc(Nc2ccc(OCC(C)(C)O)cn2)cc1Nc1cccc(-c2ncn(C)n2)c1OC [Compound 18E] | < 5 | 50 to 500 | ≥ 500 | 50 to 500
CCC(=O)c1cnc(Nc2ccc(O[C@@H]3CCN(C)C3)nn2)cc1Nc1cccc(-c2ncn(C)n2)c1OC [Compound 18FF] | 5 to 50 | ≥ 500 | ≥ 500 | ≥ 500
CCC(=O)c1cnc(Nc2ccc(OC[C@@H](O)CO)cn2)cc1Nc1cccc(-c2ncn(C)n2)c1OC [Compound 18F] | 5 to 50 | 50 to 500 | ≥ 500 | ≥ 500
CCC(=O)c1cnc(Nc2cnc(OCCN3CCOCC3)cn2)cc1Nc1cccc(-c2ncn(C)n2)c1OC [Compound 18GGG] | 5 to 50 | ≥ 500 | ≥ 500 | ≥ 500
CCC(=O)c1cnc(Nc2ccc(O[C@H]3CCN(C)C3)nn2)cc1Nc1cccc(-c2ncn(C)n2)c1OC [Compound 18GG] | 5 to 50 | ≥ 500 | ≥ 500 | ≥ 500
CCC(=O)c1cnc(Nc2ccc(OC[C@H](O)CO)cn2)cc1Nc1cccc(-c2ncn(C)n2)c1OC [Compound 18G] | 5 to 50 | ≥ 500 | ≥ 500 | ≥ 500
CCC(=O)c1cnc(Nc2cnc(OCCn3cnc(C)c3)cn2)cc1Nc1cccc(-c2ncn(C)n2)c1OC [Compound 18HHH] | 5 to 50 | ≥ 500 | ≥ 500 | ≥ 500
CCC(=O)c1cnc(Nc2ccnc(OCCCN(C)C)n2)cc1Nc1cccc(-c2ncn(C)n2)c1OC [Compound 18HH] | < 5 | ≥ 500 | ≥ 500 | ≥ 500
CCC(=O)c1cnc(Nc2ccc(OC(CO)CO)cn2)cc1Nc1cccc(-c2ncn(C)n2)c1OC [Compound 18H] | 5 to 50 | ≥ 500 | ≥ 500 | ≥ 500
CCC(=O)c1cnc(Nc2cnc(OCCn3ccnc3C)cn2)cc1Nc1cccc(-c2ncn(C)n2)c1OC [Compound 18III] | 5 to 50 | ≥ 500 | ≥ 500 | ≥ 500
CCC(=O)c1cnc(Nc2ccnc(OC3CCN(C)CC3)n2)cc1Nc1cccc(-c2ncn(C)n2)c1OC [Compound 18II] | 5 to 50 | ≥ 500 | ≥ 500 | ≥ 500

Reference: patent US20230295119A1, “SUBSTITUTED PYRIDINES FOR THE TREATMENT OF INFLAMMATORY DISEASES” (GOSSAMER BIO SERVICES, INC., priority 2020, published 2023)
